Results on 15 molecules are retold here after US20250074901A1, “NOVEL HETEROARYL COMPOUNDS” (ICAGEN, LLC, priority 2021, published 2025).

In this assay the target is T1, Kv7.2 (Homo sapiens, UniProt O43526).
T1 construct: expressed in transfected cells
Description: Activation of Kv7.2 (in vitro assay, concentration response curve). It is filed as cell-based. The settings on record: for Emax: Kv7.2 activation max %; for EC50: activation of Kv7.2. Here is the method: The term “EC50” in this application is defined as: the agonistic effect of a compound can be determined by testing the compound in an in vitro assay as described herein, whereby the effect of the compound is measured across a range of compound concentrations. The resulting data is plotted as a concentration response curve, which typically follows a sigmoidal function, whereby the concentration of the compound is plotted on the x axis and the response (agonistic effect) is plotted on the y axis. The term “EC50” is the “half maximal effective concentration” and denotes the concentration of a particular compound required to obtain 50% of the maximum response (Emax) which is observed for that compound in the given in vitro assay.

Molecules are shown by their SMILES.

`O=C(NCc1ccnc(-n2cccn2)c1)N[C@@H]1C[C@H]2CC[C@@H]1C2` [Example 16, 1-[(1R,2R,4S)-2-bicyclo[2.2.1]heptanyl]-3-[(2-pyrazol-1-ylpyridin-4-yl)methyl]urea] returned an Emax of 73% and an EC50 of 390 nM.

In the case of `CC(NC(=O)NCc1ccnc(OC(F)F)c1)C1CCC1` (stereo not drawn) [Example 17, 1-(1-cyclobutylethyl)-3-[[2-(difluoromethoxy)pyridin-4-yl]methyl]urea], the Emax is 51% and the EC50 was found to be 510 nM.

`CC1(C)CCC(NC(=O)NCc2ccnc(OC3COC3)c2)CC1` [Example 18, 1-(4,4-dimethylcyclohexyl)-3-[[2-(oxetan-3-yloxy)pyridin-4-yl]methyl]urea] came in with an Emax of 71% and an EC50 of 270 nM.

`O=C(NCc1ccnc(OC(F)F)c1)NC1CCCC1` [Example 20, 1-cyclopentyl-3-[[2-(difluoromethoxy)pyridin-4-yl]methyl]urea]: the Emax amounted to 57% and the EC50 was determined as 390 nM.

The molecule `O=C(NCc1ccnc(OCC(F)(F)F)c1)NCC1CCC1` [Example 21, 1-(cyclobutylmethyl)-3-[[2-(2,2,2-trifluoroethoxy)pyridin-4-yl]methyl]urea] had an Emax of 52% and an EC50 of 190 nM.

Molecule `O=C(NCc1ccnc(OC(F)F)c1)Nc1cccc(Cl)c1` [Example 22, 1-(3-chlorophenyl)-3-[[2-(difluoromethoxy)pyridin-4-yl]methyl]urea] came in with an Emax of 41% and a concentration giving a half-maximal response (EC50) of 30 nM.

In turn, `O=C(NCc1ccnc(OC(F)F)c1)N[C@@H]1CCOc2ccccc21` [Example 23, 1-[[2-(difluoromethoxy)pyridin-4-yl]methyl]-3-[(4R)-3,4-dihydro-2H-chromen-4-yl]urea] came in with an Emax of 52% and an EC50 of 130 nM.

Regarding `CC(NC(=O)NCc1ccnc(OC(F)F)c1)C1CC2CCC1C2` (stereo not drawn) [Example 24, 1-[1-(2-bicyclo[2.2.1]heptanyl)ethyl]-3-[[2-(difluoromethoxy)pyridin-4-yl]methyl]urea], the Emax stood at 76% and a half-maximal effect (EC50) was put at 20 nM.

The molecule `CC1CCCC(C)C1NC(=O)NCc1ccnc(OC(F)F)c1` (stereo not drawn) [Example 25, 1-[[2-(difluoromethoxy)pyridin-4-yl]methyl]-3-(2,6-dimethylcyclohexyl)urea] came in with an Emax of 75% and an EC50 of 30 nM.

On to `CC(C)(C)CNC(=O)NCc1ccnc(OC(F)F)c1` [Example 29, 1-[[2-(difluoromethoxy)pyridin-4-yl]methyl]-3-(2,2-dimethylpropyl)urea], for which the Emax was 63% and the EC50 came out at 570 nM.

In turn, `O=C(NCc1ccnc(OC(F)F)c1)NCC12CC(C1)C2` [Example 31, 1-(1-bicyclo[1.1.1]pentanylmethyl)-3-[[2-(difluoromethoxy)pyridin-4-yl]methyl]urea] registered an Emax of 57% and an EC50 of 420 nM.

Molecule `O=C(NCc1ccnc(OC(F)F)c1)NCC12CC(F)(C1)C2` [Example 32, 1-[[2-(difluoromethoxy)pyridin-4-yl]methyl]-3-[(3-fluoro-1-bicyclo[1.1.1]pentanyl)methyl]urea] displayed an Emax of 42% and an EC50 of 830 nM.

With `CC1(C)CCC(NC(=O)NCc2ccnc(-n3ccnc3)c2)CC1` [Example 37, 1-(4,4-dimethylcyclohexyl)-3-[(2-imidazol-1-ylpyridin-4-yl)methyl]urea], the maximal response (Emax) came out at 59% and the EC50 was found to be 1310 nM.

The molecule `COC1(CNC(=O)NCc2ccnc(OC(F)F)c2)CCC1` [Example 38, 1-[[2-(difluoromethoxy)pyridin-4-yl]methyl]-3-[(1-methoxycyclobutyl)methyl]urea] yielded a maximal effect (Emax) of 73% and an EC50 of 3730 nM.

Consider `CC(C)(F)CNC(=O)NCc1ccnc(OC(F)F)c1` [Example 39, 1-[[2-(difluoromethoxy)pyridin-4-yl]methyl]-3-(2-fluoro-2-methylpropyl)urea], for which the Emax came to 55% and the EC50 was found to be 1950 nM.
